Tests used:
CYP2C8 = biological target: T1, CYP2C8 (Homo sapiens, UniProt P10632); assay: CYP2C8 activity inhibition assay in human liver microsomes (paclitaxel hydroxylation, LC-MS/MS); settings: for IC50: IC50 CYP2C8, HLM, paclitaxel 5 µM
T1 sequence (P10632 1-490): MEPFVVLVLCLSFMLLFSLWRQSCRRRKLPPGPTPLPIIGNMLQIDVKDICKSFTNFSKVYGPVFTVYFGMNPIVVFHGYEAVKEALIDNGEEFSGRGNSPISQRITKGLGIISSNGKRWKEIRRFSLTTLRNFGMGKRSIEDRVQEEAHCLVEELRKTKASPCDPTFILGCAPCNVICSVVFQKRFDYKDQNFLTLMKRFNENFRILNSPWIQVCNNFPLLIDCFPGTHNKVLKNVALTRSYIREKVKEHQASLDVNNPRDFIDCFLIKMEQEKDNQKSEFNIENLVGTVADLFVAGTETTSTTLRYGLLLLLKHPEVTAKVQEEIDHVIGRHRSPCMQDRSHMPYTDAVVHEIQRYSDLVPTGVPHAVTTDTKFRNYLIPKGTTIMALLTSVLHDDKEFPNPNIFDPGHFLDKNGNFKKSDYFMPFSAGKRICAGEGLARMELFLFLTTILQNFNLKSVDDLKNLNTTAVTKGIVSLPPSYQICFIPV

CYP3A4 = CYP3A4 (Homo sapiens, UniProt P08684); assay: CYP3A4 activity inhibition assay in human liver microsomes (testosterone 6β-hydroxylation, LC-MS/MS)
CYP2D6 [1] = biological target: T2, CYP2D6 (Homo sapiens, UniProt P10635); assay: biochemical
CYP2D6 [2] = biological target: T2, CYP2D6; settings: HLM; as compared to quinidine

T2 sequence (P10635 whole entry): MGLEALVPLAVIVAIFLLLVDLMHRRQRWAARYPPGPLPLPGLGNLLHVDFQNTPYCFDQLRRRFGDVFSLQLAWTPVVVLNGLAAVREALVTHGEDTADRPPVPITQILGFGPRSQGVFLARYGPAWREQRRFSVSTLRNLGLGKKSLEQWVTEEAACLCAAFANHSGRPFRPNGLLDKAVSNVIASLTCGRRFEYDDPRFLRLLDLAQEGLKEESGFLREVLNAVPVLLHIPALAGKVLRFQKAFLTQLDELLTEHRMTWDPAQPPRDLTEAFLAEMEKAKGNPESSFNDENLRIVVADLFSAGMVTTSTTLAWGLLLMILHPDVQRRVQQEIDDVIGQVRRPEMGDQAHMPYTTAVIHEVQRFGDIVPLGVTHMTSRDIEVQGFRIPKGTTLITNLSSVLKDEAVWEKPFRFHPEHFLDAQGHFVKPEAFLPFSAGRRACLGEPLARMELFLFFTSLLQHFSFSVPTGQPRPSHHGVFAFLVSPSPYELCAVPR
CYP3A4, sequence (P08684 whole entry): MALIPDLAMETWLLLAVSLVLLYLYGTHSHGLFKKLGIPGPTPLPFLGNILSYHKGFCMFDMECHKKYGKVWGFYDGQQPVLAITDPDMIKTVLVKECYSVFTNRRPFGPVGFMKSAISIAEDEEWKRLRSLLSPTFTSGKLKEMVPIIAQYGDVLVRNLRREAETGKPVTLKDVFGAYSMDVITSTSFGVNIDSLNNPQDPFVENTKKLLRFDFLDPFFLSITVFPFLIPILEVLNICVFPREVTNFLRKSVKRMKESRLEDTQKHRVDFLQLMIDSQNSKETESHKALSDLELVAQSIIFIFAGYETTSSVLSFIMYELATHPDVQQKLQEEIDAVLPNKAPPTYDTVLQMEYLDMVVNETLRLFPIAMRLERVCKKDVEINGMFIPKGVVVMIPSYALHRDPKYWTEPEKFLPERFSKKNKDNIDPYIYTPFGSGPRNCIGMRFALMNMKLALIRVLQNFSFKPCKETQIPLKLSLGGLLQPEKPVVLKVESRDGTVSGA

Structure (SMILES)	Ki (CYP2C8) [nM]	inhibition of CYP2C8 (in words) (CYP2C8; HLM, remdesivir as compared to rosiglitazone)	IC50 (CYP2C8; remdesivir) [nM]	IC50 (CYP3A4) [nM]	Ki (CYP3A4) [nM]	inhibition of CYP3A4 (in words) (CYP3A4; HLM, as compared to ketoconazole)	IC50 (CYP2D6 [1]) [nM]	Ki (CYP2D6 [1]) [nM]	inhibition of CYP2D6 (in words) (CYP2D6 [2])	IC50 (CYP2C8; positive control) [nM]
CCC(CC)COC(=O)[C@H](C)N[P@](=O)(OC[C@H]1O[C@@](C#N)(c2ccc3c(N)ncnn23)[C@H](O)[C@@H]1O)Oc1ccccc1 [Remdesivir, remdesivir]	134	weak inhibition	268	483	241	moderate/weak inhibition	543	271	weak inhibition	
CN(CCOc1ccc(CC2SC(=O)NC2=O)cc1)c1ccccn1 (centres unmarked) [Rosiglitazone, rosiglitazone]	1600									3280

Reference: paper PMC9597875 (Frontiers in Pharmacology, 2022)
